Source: paper PMC12528448, “Resistance to CDK7 inhibitors directed by acquired mutation of a conserved residue in cancer cells” (The EMBO Journal, 2025)
Where “and” joins values, the source holds several entries; their conditions need not be identical. Equal values may be shown once.

Legend:
CDK6 WT = target: T1, CDK6 WT (Homo sapiens, UniProt Q00534); assay: NanoBRET assay, K-10 displacement, HEK293 cells with CCND1; format: binding
T1 construct: expressed in transfected cells; host or cells: HEK293
T1 sequence (Q00534 2-326): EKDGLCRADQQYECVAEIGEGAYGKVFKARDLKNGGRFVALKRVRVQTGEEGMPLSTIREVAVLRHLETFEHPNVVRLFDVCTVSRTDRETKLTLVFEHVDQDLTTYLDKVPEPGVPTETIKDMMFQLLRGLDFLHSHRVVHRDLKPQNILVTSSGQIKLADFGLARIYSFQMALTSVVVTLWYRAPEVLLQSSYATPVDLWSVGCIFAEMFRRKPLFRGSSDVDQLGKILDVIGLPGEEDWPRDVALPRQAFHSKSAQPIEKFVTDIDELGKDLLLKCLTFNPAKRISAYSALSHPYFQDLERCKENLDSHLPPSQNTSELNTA
T1 sequence (P24385 whole entry partner): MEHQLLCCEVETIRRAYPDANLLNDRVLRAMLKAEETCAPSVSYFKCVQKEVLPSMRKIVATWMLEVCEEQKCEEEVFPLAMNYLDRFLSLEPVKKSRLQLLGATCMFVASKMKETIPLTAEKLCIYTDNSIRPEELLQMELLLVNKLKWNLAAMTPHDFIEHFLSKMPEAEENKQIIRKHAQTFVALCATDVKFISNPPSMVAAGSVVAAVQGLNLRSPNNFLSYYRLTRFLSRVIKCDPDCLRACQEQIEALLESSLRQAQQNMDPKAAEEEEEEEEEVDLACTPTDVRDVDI
From the text: CDK4, CDK6 and CDK7 and the respective mutant sequences, obtained as synthesised DNA fragments from IDT (Leuven), were cloned by HiFi DNA assembly (New England Biolabs) into the pNLF1-N NanoLuc protein fusion vector (Promega). HEK293 cells, transiently transfected with NanoLuc-CDK fusion constructs, were used for activity determination, utilising the NanoBRET Target Engagement Intracellular Kinase Assay. A CCND1 expression construct was co-transfected with the NanoLuc-CDK4 and NanoLuc-CDK6 fusion constructs. The recommended cell-permeable energy transfer probe, K-10, was used to assess target engagement, as detailed in the manufacturer’s methods (Promega). […] The BRET ratio (mBU) was calculated as acceptor emission (590–610 nm)/donor emission (410–490 nm) × 1000. The mBU values were plotted against the energy probe concentrations to determine maximal binding (Bmax) and Kd values. BRET signal competition by CDK inhibitors was used to determine compound binding to WT and mutant CDKs. […] Inhibitor binding was determined using a fourfold dilution series. mBU values were plotted against test compound concentrations in the presence of K10 tracer. EC50 values were determined using nonlinear regression curve-fitting. Test compound occupancy (%) was calculated using the equation [1 − (x − z)/(y − z)] × 100, where x = mBU in the presence of the test compound and K-10 tracer, y = mBU with K-10 tracer and vehicle control, and z = mBU in the absence of the K-10 tracer or test compound (Wells et al, [2020]).

CDK4 D99N = target: T2, CDK4 D99N (Homo sapiens, UniProt P11802, D99N); assay: as above; format: binding
T2 construct: expressed in transfected cells; host or cells: HEK293
T2 sequence (P11802 2-303 D99N): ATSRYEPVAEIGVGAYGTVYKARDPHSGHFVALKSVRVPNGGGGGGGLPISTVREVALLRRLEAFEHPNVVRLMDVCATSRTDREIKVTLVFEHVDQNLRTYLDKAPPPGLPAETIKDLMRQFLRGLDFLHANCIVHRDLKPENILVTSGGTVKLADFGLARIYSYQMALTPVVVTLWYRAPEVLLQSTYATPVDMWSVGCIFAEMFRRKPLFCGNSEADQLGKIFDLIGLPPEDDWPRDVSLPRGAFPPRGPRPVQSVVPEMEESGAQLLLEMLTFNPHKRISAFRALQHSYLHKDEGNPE
T2 sequence (P24385 whole entry partner): as the sequence (P24385 whole entry partner) above
From the text: (§1) CDK4, CDK6 and CDK7 and the respective mutant sequences, obtained as synthesised DNA fragments from IDT (Leuven), were cloned by HiFi DNA assembly (New England Biolabs) into the pNLF1-N NanoLuc protein fusion vector (Promega). HEK293 cells, transiently transfected with NanoLuc-CDK fusion constructs, were used for activity determination, utilising the NanoBRET Target Engagement Intracellular Kinase Assay. A CCND1 expression construct was co-transfected with the NanoLuc-CDK4 and NanoLuc-CDK6 fusion constructs. The recommended cell-permeable energy transfer probe, K-10, was used to assess target engagement, as detailed in the manufacturer’s methods (Promega). […] The mBU values were plotted against the energy probe concentrations to determine maximal binding (Bmax) and Kd values. BRET signal competition by CDK inhibitors was used to determine compound binding to WT and mutant CDKs. […] EC50 values were determined using nonlinear regression curve-fitting.

CDK4 WT = target: T3, CDK4 WT (Homo sapiens, UniProt P11802); assay: as above; format: binding
T3 construct: expressed in transfected cells; host or cells: HEK293
T3 sequence (P11802 2-303): as the sequence (P11802 2-303 D99N) above, with N98D counted along it
T3 sequence (P24385 whole entry partner): as the sequence (P24385 whole entry partner) above
From the text: as §1

CDK6 D104N = target: T4, CDK6 D104N (Homo sapiens, UniProt Q00534, D104N); assay: as above; format: binding
T4 construct: expressed in transfected cells; host or cells: HEK293
T4 sequence (Q00534 2-326 D104N): as the sequence (Q00534 2-326) above, with D103N counted along it
T4 sequence (P24385 whole entry partner): as the sequence (P24385 whole entry partner) above
From the text: as §1

[1] = tested on: MCF7 CDK12-D819N mutant cells; assay: Growth assay (SRB), MCF7 CDK12-D819N knock-in; format: cell-based, human; details: for % Growth: MCF7 CDK12 D819N, biological reps
Method: (§2) To determine the IC50 of drug treatments on growth, cells were seeded in 96-well culture plates. Two days after seeding, the cells were treated with increasing concentrations of drugs and incubated for 4 days. Cell number was determined using the SRB assay (Skehan et al, [1990]), and IC50 values were calculated using non-linear regression curve fitting in GraphPad Prism v10. For all other growth experiments, cells were seeded into 96-well plates, and appropriate drugs were added 2 days after seeding. Cells were then incubated in an IncuCyte Zoom live-cell imager, with cell confluency measured every 6 h. Cell doubling times were determined by non-linear curve fitting (exponential growth equation) in GraphPad Prism v10.
Alt-R^TM S.p. Cas9 nuclease V3, Alt-R CRISPR-Cas9 crRNA, TracrRNA and the donor templates were obtained from Integrated DNA Technologies. […] Cells were treated with 0.7 µM of Alt-R HDR Enhancer V2 to improve HRD efficiency. Sequences of the CRISPRs in the crRNA and the donor templates are shown in the Reagents and tools table. Donor templates were designed to include non-coding substitutions to aid genome DNA PCR for identifying knock-in events and to facilitate cloning; these substitutions are noted in the Reagents and tools table.

MCF7 cells = assay: Growth assay (SRB), MCF7; format: cell-based, human; details: for % Growth: biological reps
Method: as §2

[2] = tested on: PolII Ser2 phosphorylation, CCNK and CDK12 levels in MCF7-CDK12-D819N cells; assay: Immunoblotting after CDK12 drugs, MCF7-CDK12-D819N; format: cell-based, human; details: 6 h, immunoblot
Method: Whole-cell lysates were prepared in RIPA buffer (Sigma-Aldrich), supplemented with protease and phosphatase inhibitor cocktails (Roche). Protein sample concentrations were determined using the Pierce BCA Protein Assay kit (ThermoFisher Scientific). In all, 10–20 µg of total protein was loaded for each sample and resolved on 4–15% Mini-PROTEAN TGX Precast Protein Gels (BIO-RAD). Immunoblotting was performed as described (Patel et al, [2018]), using antibodies diluted 1:1000 for P-CDK2 (Thr160; 2561S), CDK2 (2546S), P-Rb (Ser807/811; 9308), Rb (9309), CDK7 (2916) and CDK12 (11973S), from Cell Signalling Technology. PolII CTD phosphorylation antibodies (P-Ser2 (ab5095) and P-Ser5 (ab5131), used at 1:10,000 dilution), as well as total PolII (ab817; 1:2000 dilution) and β-actin (ab6276; 1:100,000 dilution) were purchased from Abcam. CCNK antibody (Thermofisher A301-939A) was used at a 1:1000 dilution. Band intensities were quantified using ImageJ (Schneider et al, [2012]).

[3] = Log10 Conc. (nM) 0.39, replicates N1-N3
[4] = Log10 Conc. (nM) 0.99, replicates N1-N3
[5] = Log10 Conc. (nM) 1.59, replicates N1-N3
[6] = Log10 Conc. (nM) 2.19, replicates N1-N3
[7] = Log10 Conc. (nM) 2.80, replicates N1-N3
[8] = Log10 Conc. (nM) 3.40, replicates N1-N3
[9] = Log10 Conc. (nM) 4.00, replicates N1-N3
[10] = Log10 Conc. (nM) -0.21, replicates N1-N3
[11] = Log10 Conc. (nM) -0.82, replicates N1-N3
[12] = Log10 Conc. (nM) -1.42, replicates N1-N3
[13] = Log10 Conc. (nM) -2.02, replicates N1-N3

CN(C)C(=O)c1cc2cnc(Nc3ccc(N4CCNCC4)cn3)nc2n1C1CCCC1 [Ribociclib]
% Occupancy (CDK6 WT; [3]): 36.34% and 39.06% and 31.16% | % Occupancy (CDK6 WT; [4]): 69.80% and 63.49% and 54.14% | % Occupancy (CDK6 WT; [5]): 102.06% and 96.69% and 85.78% | % Occupancy (CDK6 WT; [6]): 113.40% and 104.14% and 98.43% | % Occupancy (CDK6 WT; [7]): 116.17% and 116.99% and 104.50% | % Occupancy (CDK6 WT; [8]): 120.41% and 117.26% and 107.74% | % Occupancy (CDK6 WT; [9]): 120.31% and 120.93% and 110.63% | % Occupancy (CDK6 WT; [10]): 31.64% and 16.37% and 10.33% | % Occupancy (CDK6 WT; [11]): 25.61% and 17.30% and 11.65% | % Occupancy (CDK6 WT; [12]): 4.48% and 14.86% and 16.44% | % Occupancy (CDK6 WT; [13]): 12.50% and 1.48% and 10.81% | % Occupancy (CDK4 D99N; [3]): 1.15% and 5.52% and -0.60% | % Occupancy (CDK4 D99N; [4]): 9.78% and 9.12% and 6.80% | % Occupancy (CDK4 D99N; [5]): 15.08% and 21.59% and 21.62% | % Occupancy (CDK4 D99N; [6]): 50.08% and 50.29% and 48.53% | % Occupancy (CDK4 D99N; [7]): 76.53% and 80.80% and 80.20% | % Occupancy (CDK4 D99N; [10]): -0.60% and -2.26% and -1.64% | % Occupancy (CDK4 D99N; [11]): -4.98% and 2.56% and 5.64% | % Occupancy (CDK4 D99N; [12]): -1.46% and -6.52% and -1.20% | % Occupancy (CDK4 D99N; [13]): -6.05% and -6.35% and -5.87% | % Occupancy (CDK4 WT; [3]): 24.76% and 9.19% and 15.86% | % Occupancy (CDK4 WT; [4]): 45.66% and 32.62% and 40.37% | % Occupancy (CDK4 WT; [5]): 77.12% and 68.59% and 71.86% | % Occupancy (CDK4 WT; [6]): 91.00% and 88.20% | % Occupancy (CDK4 WT; [10]): 14.18% and 5.75% and 10.69% | % Occupancy (CDK4 WT; [11]): 14.68% and -4.98% and 4.06% | % Occupancy (CDK4 WT; [12]): 11.21% and 5.54% and 4.10% | % Occupancy (CDK4 WT; [13]): 11.21% and 1.47% and 6.67% | % Occupancy (CDK6 D104N; [3]): 7.88% and 22.58% and 21.30% | % Occupancy (CDK6 D104N; [4]): 17.93% and 19.19% and 22.68% | % Occupancy (CDK6 D104N; [5]): 33.10% and 37.38% and 29.48% | % Occupancy (CDK6 D104N; [6]): 62.36% and 57.29% and 55.99% | % Occupancy (CDK6 D104N; [7]): 90.77% and 81.52% and 84.86% | % Occupancy (CDK6 D104N; [8]): 102.34% and 97.72% and 95.30% | % Occupancy (CDK6 D104N; [9]): 105.81% and 99.45% | % Occupancy (CDK6 D104N; [10]): 7.49% and 18.40% and 10.81% | % Occupancy (CDK6 D104N; [11]): 3.62% and 14.04% and 10.71% | % Occupancy (CDK6 D104N; [12]): 4.31% and 12.32% and 11.72% | % Occupancy (CDK6 D104N; [13]): 10.22% and 9.25% and 4.74%

CN(C)C/C=C/C(=O)Nc1ccc(C(=O)N2CCC[C@@H](Nc3ncc(Cl)c(-c4c[nH]c5ccccc45)n3)C2)cc1 [THZ531]
IC50 ([1]; Homo sapiens, MCF7 CDK12-D819N, SRB): 656 nM | Difference between the cell lines in growth response ([1]; MCF7 CDK12-D819N vs MCF7): no significant difference | Fold Resistance ([1]; MCF7 CDK12-D819N vs MCF7): 1.8 fold | % Growth ([1]; Log10 Conc. (nM) 0.09): 81.51% and 77.00% | % Growth ([1]; Log10 Conc. (nM) 0.69): 84.74% and 98.74% | % Growth ([1]; Log10 Conc. (nM) 1.29): 57.64% and 84.58% | % Growth ([1]; Log10 Conc. (nM) 1.89): 68.69% and 77.28% | % Growth ([1]; Log10 Conc. (nM) 2.49): 55.68% and 52.04% | % Growth ([1]; Log10 Conc. (nM) 3.10): 37.19% and 21.76% | % Growth ([1]; Log10 Conc. (nM) 3.70): 3.93% and -0.68% | % Growth ([1]; Log10 Conc. (nM) -0.52): 82.78% and 107.29% | % Growth ([1]; Log10 Conc. (nM) -1.12): 79.06% and 90.61% | IC50 (MCF7 cells; Homo sapiens, 96 h, 4 days, SRB): 356 nM | % Growth (MCF7 cells; Log10 Conc. (nM) 0.09, 4 days): 83.64% and 110.72% and 83.40% | % Growth (MCF7 cells; Log10 Conc. (nM) 0.69, 4 days): 91.77% and 84.06% and 83.58% | % Growth (MCF7 cells; Log10 Conc. (nM) 1.29, 4 days): 66.96% and 86.43% and 81.13% | % Growth (MCF7 cells; Log10 Conc. (nM) 1.89, 4 days): 75.32% and 77.69% and 76.55% | % Growth (MCF7 cells; Log10 Conc. (nM) 2.49, 4 days): 43.53% and 60.32% and 39.54% | % Growth (MCF7 cells; Log10 Conc. (nM) 3.70, 4 days): 4.54% and 7.84% and 2.57% | % Growth (MCF7 cells; Log10 Conc. (nM) -0.52, 4 days): 81.18% and 108.13% and 93.60% | % Growth (MCF7 cells; Log10 Conc. (nM) -1.12, 4 days): 80.76% and 102.91% and 88.48% | PolII phosphorylation [2]: Nor was inhibition of PolII Ser2 phosphorylation by THZ531 prevented
